We go through nine compounds from patent publication US20260083122A1, “METHOD AND AGENT FOR INACTIVATING BACTERIA OR VIRUSES, AND ANTIVIRAL BASE MATERIAL USING SAME” (NISSAN MOTOR CO., LTD., priority 2022, published 2026).

Read-outs that look alike come from different tables or passages of the source.

A short description of data set [1]: Standard redox potential by cyclic voltammetry. It is filed as physicochemical. The following applies: reference electrode Ag/Ag^+, sweep rate 50 mV/s. As to the method:
The standard redox potential is measured by cyclic voltammetry (CV) under a temperature condition of 25° C. At this time, the measurement is performed by a three-electrode method using a glassy carbon electrode (inner diameter: 3 mm) as a working electrode, a reference electrode (Ag/Ag^+), and a counter electrode (platinum wire), and the sweep rate of the potential is 50 mV/s. It is noted that the hydroxyamine forms of the compounds of the present invention are generally unstable and rapidly oxidized into nitroxyl radical forms. Thus, the value of the standard redox potential measured by the above method is the value between the nitroxyl radical form and the oxoammonium form.
In the cyclic voltammogram shown in FIG. 1, the cyclic voltammogram was stably maintained even after repeating 100 or more cycles of measurement, and thus it is observed that the compound of the present aspect has very high durability as an oxidizing agent.

The target of data set [2] is T1, S-RBD-His(WT) (SARS-CoV-2 Spike Protein (RBD)) (Severe acute respiratory syndrome coronavirus 2, UniProt P0DTC2).
For data set [3], the system named is feline coronavirus (FCov (VR-989)). It is filed as cell-based. As to conditions: FCoV dilution series incubated with compound at room temperature for 2 hours; CRFK cells, 2 days culture.
Data set [4] shares this test system. Put plainly: Antiviral effect of AZADO (CPE method; incubation at 37° C.). It is filed as cell-based.
Data set [5] shares this test system. The format is cell-based. As to conditions: for Positive rate (CPE) / Number of wells when CPE is positive: 3 days culture.
Data set [6] shares this test system. In words: Cell viability by WST-8 method in the 25° C. incubation experiment. It is filed as cell-based. The following applies: cells cultured for 3 days after sample addition and medium replacement; virus alone about 50%.
A further data set addresses T2, ovalbumin (OVA) (Gallus gallus, UniProt P01012).
T2 sequence (P01012 1-386): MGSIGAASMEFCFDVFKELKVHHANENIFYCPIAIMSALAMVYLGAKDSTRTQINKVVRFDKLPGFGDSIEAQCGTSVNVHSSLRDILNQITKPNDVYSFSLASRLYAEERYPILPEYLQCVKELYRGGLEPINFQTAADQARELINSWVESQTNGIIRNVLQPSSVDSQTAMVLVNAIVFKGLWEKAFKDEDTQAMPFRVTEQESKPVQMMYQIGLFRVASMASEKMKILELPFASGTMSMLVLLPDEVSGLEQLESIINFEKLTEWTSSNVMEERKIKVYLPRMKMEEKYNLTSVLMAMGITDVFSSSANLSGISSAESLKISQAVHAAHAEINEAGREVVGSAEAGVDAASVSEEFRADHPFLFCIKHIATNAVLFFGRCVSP
Put plainly: Degradation activity on ovalbumin (electrophoresis, CBB staining). It is filed as biochemical. The following applies: room temperature for 24 hours.

The test system of data set [7] is Escherichia coli (DH5a strain; AMP+). Put plainly: Measurement of minimum inhibitory concentration (MIC) against Escherichia coli (colony count). It is filed as cell-based. As to conditions: for CFU relative value: Comparative Example (0 mM) is 100. The procedure: First, Escherichia coli (DH5a strain; AMP+) was cultured with shaking in LB medium for 20 hours, and the obtained culture solution was used as an Escherichia coli stock solution. Then, the Escherichia coli stock solution was diluted 1000 times with PBS to obtain a diluted solution. In addition, this diluted solution was used as a comparative example.
On the other hand, AZADO^+NO3^− was added to the diluted solution obtained above to have a final concentration of 1 μM, 10 μM, 100 μM, 1 mM, or 10 mM, respectively, and the obtained mixture was allowed to stand at room temperature for 15 minutes. Thereafter, for the purpose of deactivating AZADO^+NO3^−, the diluted solution was further diluted 10 times using LB medium as a reaction stop solution. Finally, 25 μL of the reaction solution obtained in this manner was applied to LB agar medium, and cultured at 37° C. for 1 day. Then, the number of colonies on the agar medium after culture was counted, and the colony forming unit (CFU/mL) per mL was calculated. In addition, the “CFU relative value” described in Table 3 is a relative value when the value of the colony forming unit of Comparative Example is 100.

Data set [8] deals with T1, S-RBD-His(WT) (SARS-CoV-2 Spike Protein (RBD)). This is another data set of the same source.
Data set [9] concerns Escherichia coli ATCC 43895, serotype 0157:H7.
Data set [10] deals with Staphylococcus aureus subsp. aureus NBRC 12732.
In data set [11] the test system is Penicillium citrinum (NBRC 6352).

As to 1,3-dimethyl AZADO, the “standard redox potential (E^0@25° C.) between the nitroxyl radical form and the oxoammonium form” value (“standard redox potential” below) in [1] is listed as 136 mV.

Regarding `CC12CC3CC(CC(C3)N1[O])C2` [1-methyl AZADO], in [1], the “standard redox potential” value was determined as 186 mV.

As for `CC(=O)NC1CC(C)(C)[N+](=O)C(C)(C)C1.F[B-](F)(F)F` [4-AcNH-TEMPO^+BF4^−], in data set [2], the “activity compared among the compounds (peak shift, MFI)” value is on record as “almost equally strong” and the “antiviral activity (MFI) on extended treatment time” value is listed as “showed higher antiviral activity”.

Regarding `[O]N1C2CC3CC(C2)CC1C3` [AZADO, 2-azaadamantane-N-oxyl], the “standard redox potential” value in data set [1] stood at 236 mV.

In the case of `O=[N+]([O-])[O-].O=[N+]1C2CC3CC(C2)CC1C3` [AZADO-Oxo], the “cell viability (WST-8 method)” value is “recovery of cell viability decreased by virus addition was observed” in data set [3] and “recovered the cell viability to the same level as the blank” in [6]. Besides, the logTCID50 is listed as 2.4 in [4] (AZADO-Oxo 2 mM added, 37° C. 2 hours (no AZADO-Oxo: 5.2)) and 2.4 in data set [5] (AZADO-Oxo added, 25° C. incubation (no AZADO-Oxo: 5.2)). For the same compound, the TCID50 in [4] (AZADO-Oxo 2 mM added, 37° C. 2 hours (no AZADO-Oxo: 142262)) is recorded as 253; in data set [5] (AZADO-Oxo added, 25° C. incubation (no AZADO-Oxo: 142262)) it was 253. Also, the “viral load reduced to (fraction)” value in data set [4] (AZADO-Oxo 2 mM, 37° C. 2 hours) was “about 1/1000”. Further, in data set [4] (AZADO-Oxo 2 mM, 37° C. 2 hours, 5.2-2.4), the “Δ log TCID50” value is 2.8. Besides, the “Positive rate (CPE)” value was determined as 0% in data set [4] (AZADO-Oxo 2 mM, 37° C. 2 hours, viral load 10^−1); 0% in data set [4] (AZADO-Oxo 2 mM, 37° C. 2 hours, viral load 10^−2); 0% in data set [4] (AZADO-Oxo 2 mM, 37° C. 2 hours, viral load 10^−3); 0% in [4] (AZADO-Oxo 2 mM, 37° C. 2 hours, viral load 10^−4); 0% in data set [4] (AZADO-Oxo 2 mM, 37° C. 2 hours, viral load 10^−5); 0% in data set [4] (AZADO-Oxo 2 mM, 37° C. 2 hours, viral load (relative value) 1). Further, the “Positive rate (CPE)” value in data set [5] (AZADO-Oxo added, 25° C. incubation, viral load 10^−1) was determined as 0%; in [5] (AZADO-Oxo added, 25° C. incubation, viral load 10^−2) it was 0%; in data set [5] (AZADO-Oxo added, 25° C. incubation, viral load 10^−3), 0%; in data set [5] (AZADO-Oxo added, 25° C. incubation, viral load 10^−4), 0%; in data set [5] (AZADO-Oxo added, 25° C. incubation, viral load 10^−5), 0%; in data set [5] (AZADO-Oxo added, 25° C. incubation, viral load (relative value) 1), 0%. For the same compound, the “Number of wells when CPE is positive” value is 0 in data set [4] (AZADO-Oxo 2 mM, 37° C. 2 hours, viral load 10^−1, 8 wells); 0 in [4] (AZADO-Oxo 2 mM, 37° C. 2 hours, viral load 10^−2, 8 wells); 0 in data set [4] (AZADO-Oxo 2 mM, 37° C. 2 hours, viral load 10^−3, 8 wells); 0 in [4] (AZADO-Oxo 2 mM, 37° C. 2 hours, viral load 10^−4, 8 wells); 0 in data set [4] (AZADO-Oxo 2 mM, 37° C. 2 hours, viral load 10^−5, 7 wells); 0 in data set [4] (AZADO-Oxo 2 mM, 37° C. 2 hours, viral load (relative value) 1, 7 wells). In addition, the “Number of wells when CPE is positive” value in [5] (AZADO-Oxo added, 25° C. incubation, viral load 10^−1, 8 wells) turned out to be 0; in data set [5] (AZADO-Oxo added, 25° C. incubation, viral load 10^−2, 8 wells) it was 0; in data set [5] (AZADO-Oxo added, 25° C. incubation, viral load 10^−3, 8 wells), 0; in [5] (AZADO-Oxo added, 25° C. incubation, viral load 10^−4, 8 wells) it was 0; in [5] (AZADO-Oxo added, 25° C. incubation, viral load 10^−5, 7 wells), 0; in [5] (AZADO-Oxo added, 25° C. incubation, viral load (relative value) 1, 7 wells), 0. Moreover, in data set [5] (48 hours after the addition of the sample solution, 25° C. incubation), the “change of cell form to a round shape by virus (microscope)” value was “this form change is suppressed”. Further, on ovalbumin (OVA) (1 mg catalyst support or 3 μL of 100 mM AZADO-Oxo), the “band of OVA in supernatant (CBB staining)” value was “almost eliminated”. Moreover, the “band of OVA in supernatant (CBB staining), unsupported AZADO” value at ovalbumin (OVA) (2.5 μL of 100 mM AZADO-Oxo, with or without 2.5 μL of 100 mM cocatalyst) was “elimination of a band of OVA (protein degradation activity) was confirmed”. Further, the “final concentration at which a remarkable inactivation effect was observed” value in data set [7] (Escherichia coli, 15 minutes contact) is reported as not below 100 PM. Besides, the colony forming unit is on record as 1.28 × 10^8 CFU/mL in [7] (final concentration 0.001 mM (0 mM: 1.21 × 10^8)); 1.25 × 10^8 CFU/mL in data set [7] (final concentration 0.01 mM); 6.04 × 10^7 CFU/mL in [7] (final concentration 0.1 mM); 0 CFU/mL in [7] (final concentration 1 mM); 0 CFU/mL in data set [7] (final concentration 10 mM). The CFU relative value in [7] (final concentration 0.001 mM) amounted to 105; in [7] (final concentration 0.01 mM), 103; in [7] (final concentration 0.1 mM) it was 50; in data set [7] (final concentration 1 mM), 0; in [7] (final concentration 10 mM), 0. Besides, the Number of colonies in data set [7] (final concentration 0.001 mM, room temperature 15 minutes (0 mM: 303)) is 319; in [7] (final concentration 0.01 mM, room temperature 15 minutes), 313; in data set [7] (final concentration 0.1 mM, room temperature 15 minutes), 151; in [7] (final concentration 1 mM, room temperature 15 minutes), 0; in [7] (final concentration 10 mM, room temperature 15 minutes), 0. This compound yielded a sterilization effect in data set [7] (final concentration 1 mM or more) not below 99%. Further, the “shift of fluorescence peak (binding amount between spike protein and ACE2)” value in [8] is “shifted to the left depending on the amount of AZADO-Oxo added”.

Take `F[B-](F)(F)F.O=[N+]1C2CC3CC(C2)CC1C3` [AZADO^+BF4^−]: in [2], the “activity compared among the compounds (peak shift, MFI)” value is listed as “almost equally strong” and the “antiviral activity (MFI) on extended treatment time” value was “showed higher antiviral activity”.

`CC1(C)CCCC(C)(C)N1[O]` [TEMPO, 2,2,6,6-tetramethylpiperidine-N-oxyl]: the “standard redox potential” value in [1] was found to be 294 mV.

Turning to `O=[N+]([O-])[O-].[Ag+]` [silver nitrate, reference compound], in data set [3], the “cell viability (WST-8 method)” value was “such a phenomenon was not observed”.

As for copper(II) nitrate, the viable cell ratio entry in data set [9] is on record as “did not decrease to 0%”; in data set [10], “did not decrease after 5 minutes from the addition”; in data set [11], “started to increase after 5 minutes from the addition”.
